Laboratory results taken from PMC4750079, “Tackling amyloidogenesis in Alzheimer’s disease with A2V variants of Amyloid-β” (Scientific Reports, 2016).
Where a SMILES comes first, the peptide text is derived from it. [ ]: non-standard residue; d: D form.

Molecular target: T1, Aβ1-42WT (Homo sapiens, UniProt P05067)
T1 construct: Aβ1-42WT oligomers were formed following incubation of Aβ1-42WT at a final concentration of 100 μM; made in house; host or cells: chemical synthesis (solid-phase Fmoc), no expression host
T1 sequence (P05067 672-713 limits assumed): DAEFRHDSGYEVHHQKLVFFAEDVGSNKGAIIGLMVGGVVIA
Assay: Polarized light and electron microscopy of Aβ1-42WT aggregates
Format: biochemical
Conditions: 20 days incubation, 37 °C, molar ratio 1:1 or 1:4
Protocol: Figure 3 Inhibition of aggregation of Aβ1-42WT by Aβ1-6A2VTAT(D). Polarized-light (A,B), electron microscopy (C,D) and atomic force microscopy (AFM) (E–H) studies showing the inhibitory effects of Aβ1-6A2VTAT(D) on amyloid formation, fibril production and oligomerization by Aβ1-42WT. In polarized-light and EM studies, both peptides were used at 0.125 mM, molar ratio = 1:1 or 1:4 respectively, with 20 days incubation. […] E,F: Representative Tapping mode of AFM images as determined by amplitude error data of Aβ1-42WT oligomers. Aβ1-42WT peptide 100 μM in phosphate buffer 50 mM, pH 7.4 was incubated at 4 °C for 24 h alone (E) (Z range: -10/ + 10 mV) or in presence of Aβ1-6A2VTAT(D) (F) (Z range: -10/ + 25 mV). The molar ratio of Aβ1-42WT to Aβ1-6A2VTAT(D) was 1:4. Scale bar: 1 μm, inset: 200 nm. (G,H): height plot profiles obtained along different lines traced on the topographic AFM images.
Aβ1-42WT, Aβ1-6A2VTAT(D) were dissolved in 10 mM NaOH and then diluted in an equal volume of 100 mM Tris-HCl, pH 7.0, to final concentrations (0.250 mM). […] The samples were incubated at 37 °C, and the tinctorial and ultrastructural properties of the peptide assemblies were determined at various intervals, ranging from 1 h to 20 days, as previously described. […]

SMILES: CC(C)[C@@H](NC(=O)[C@H](N)CC(=O)O)C(=O)N[C@H](CCC(=O)O)C(=O)N[C@H](Cc1ccccc1)C(=O)N[C@H](CCCNC(=N)N)C(=O)N[C@H](Cc1c[nH]cn1)C(=O)NCC(=O)NCC(=O)NCC(=O)NCC(=O)NCC(=O)N[C@H](CCCNC(=N)N)C(=O)N[C@H](CCCCN)C(=O)N[C@H](CCCCN)C(=O)N[C@H](CCCNC(=N)N)C(=O)N[C@H](CCCNC(=N)N)C(=O)N[C@H](CCC(N)=O)C(=O)N[C@H](CCCNC(=N)N)C(=O)N[C@H](CCCNC(=N)N)C(=O)N[C@H](CCCNC(=N)N)C(=O)O [Aβ1-6A2VTAT(D)] (H-[dD][dV][dE][dF][dR][dH]GGGGG[dR][dK][dK][dR][dR][dQ][dR][dR][dR]-OH; N-terminus assumed)
- amount of fibrils generated by Aβ1-42WT (electron microscopy): reduces the amount of fibrils generated by the full-length peptide
- formation of amyloid structures by Aβ1-42WT (polarized light): hinders the formation of amyloid structures
